Experiment [1] relates to HEK-293 cells stably expressing GFP-LC3B. The experiment can be described thus: Autophagic flux assay (GFP signal). The experiment is classed as cell-based, human.
Experiment [2] relates to αSyn dimerization in Neuro2A cells. The experiment can be described thus: α-Synuclein dimerization assay (split Gaussia luciferase PCA). The experiment is classed as cell-based, mouse.
The test system of experiment [3] is HEK-293 cells stably expressing GFP-LC3B. To be noted: GFP signal percentage of DMSO control with SEM, ref 16 or 19; cited from earlier work.
For experiment [4], the system named is αSyn dimerization in Neuro2A cells. To be noted: luminescence signal percentage of DMSO control with SEM, cited from earlier work.

Read-outs that look alike come from different tables or passages of the source.

For the compound `Cc1nc(CCCc2ccccc2)sc1N1CCC[C@H]1C#N` [HUP-46, (S)-1-(4-Methyl-2-(3-phenylpropyl)thiazol-5-yl)pyrrolidine-2-carbonitrile], in experiment [1], the “autophagic flux, concentration–response” value was “concentration-dependent up to 20 μM”. The “concentration of maximal efficacy in the αSyn dimerization assay” value in experiment [2] worked out at 10 µM.

Turning to `CC(C)c1nc(CCc2c[nH]c3ccccc23)sc1N1CCCC1` [Compound 16k, 2-(2-(1H-Indol-3-yl)ethyl)-4-isopropyl-5-(pyrrolidin-1-yl)thiazole], the “effect on autophagy (in words)” value in experiment [1] (10 μM, SAR discussion) is recorded as “loss of activity”. In addition, in experiment [2] (10 μM, SAR discussion), the “effect on αSyn dimerization (in words)” value is listed as “loss of activity”.

On to `C[C@H](NC(=O)CCCc1ccccc1)C(=O)N1CCC[C@H]1c1nnn[nH]1` [HUP-28], for which the “autophagy at 10 μM” value in experiment [3] is on record as 71 ± 6%. For the same compound, the “αSyn dimerization at 10 μM” value in experiment [4] (ref 16 or 19) is on record as 75 ± 5%.

Turning to `Cc1nc(CCCc2ccccc2)oc1N1CCC[C@H]1C#N` [HUP-55], in experiment [4], the “αSyn dimerization at 10 μM” value was 85 ± 2%.

Take `CO[C@H]1C[C@@H]2CC[C@@H](C)[C@@](O)(O2)C(=O)C(=O)N2CCCC[C@H]2C(=O)O[C@H]([C@H](C)C[C@@H]2CC[C@@H](O)[C@H](OC)C2)CC(=O)[C@H](C)/C=C(\C)[C@@H](O)[C@@H](OC)C(=O)[C@H](C)C[C@H](C)/C=C/C=C/C=C/1C` [Rapamycin]: the “GFP signal of the baseline” value in experiment [1] (rapamycin positive control (0.5 μM), maximum effect in this assay) was “about 65%”.

These data come from article PMC11394002, “5-Aminothiazoles Reveal a New Ligand-Binding Site on Prolyl Oligopeptidase Which is Important for Modulation of Its Protein–Protein Interaction-Derived Functions” (Journal of Medicinal Chemistry, 2024).
